# Experimental data: patent US9765381B2, “Mutated genes for the catalytic protein of oplophorus luciferase and use thereof” (JNC Corporation, priority 2013, dated 2017)
# What was measured:
# [1] = Luminescence activity of amino-terminal deleted nanoKAZ and ZZ-fused amino-terminal deleted nanoKAZ in crude enzyme solution; format: biochemical; conditions: expressed in E. coli BL21, crude enzyme solution, coelenterazine substrate, nanoKAZ = 100; for Relative luminescence activity (%, Imax) pCold-ZZ-P-: ZZ-fused (pCold-ZZ-P- vector); for Relative luminescence activity (%, Imax) pCold-: pCold- vector
# Procedure: In order to express the amino-terminal deleted nanoKAZ in E. coli, the recombinant plasmid obtained in EXAMPLE 4 was used. The E. coli BL21 strain (Novagen, Madison, Wis.) was used as a host cell. The BL21 strain carrying the recombinant plasmid was incubated in 5 mL of Luria-Bertani medium (hereinafter designated as LB medium) containing ampicillin (50 μg/mL) at 37° C. for 18 hours. The seed culture of 0.1 mL was inoculated to 10 mL of LB medium and incubated for 3 hours, followed by cooling in an ice-water bath for 1 hour. IPTG was added to the culture medium at a final concentration of 0.1 mM, followed by incubation at 15° C. for further 17 hours. After completion of the incubation, 1 mL of the culture medium was collected by centrifugation at 10,000 rpm for 2 minutes. The collected E. coli cells were suspended in 0.5 mL of 30 mM Tris-HCl (pH 7.6)-10 mM EDTA (manufactured by Wako Pure Chemical Industries, Ltd.) (hereinafter designated as TE). The E. coli cells were disrupted by sonication for 3 seconds using a Branson model 250 sonifire (Danbury, Conn.) to give a crude enzyme solution. Then, 5 μL of the crude enzyme solution was analyzed by SDS-PAGE to confirm the protein expression (FIG. 1).
# To express the ZZ-fused amino-terminal deleted nanoKAZ in E. coli, the recombinant plasmid obtained in EXAMPLE 6 was used. Crude enzyme solutions were prepared using a similar manner to EXAMPLE 5 using the E. coli BL21 strain (Novagen, Madison, Wis.) as a host cell. Then, 5 μL of the crude enzyme solution obtained was subjected to SDS-PAGE analysis to confirm the protein expression (FIG. 2).
# The crude enzyme solutions obtained in EXAMPLE 5 and EXAMPLE 7 were allowed to stand in an ice-water for over 1 hour and then diluted to 50-fold in TE. By addition of 1 μL each of the crude enzyme solutions to 100 μL of TE containing 1 μg of coelenterazine (manufactured by JNC Corp.), a luminescence reaction was started. The luminescence activity was measured for 60 seconds using a luminometer (manufactured by Atto AB2200); the maximum intensity of luminescence (Imax) is given as a percentage (%).
# CHO-K1 cells = assay: Luminescence activity of amino-terminal deleted nanoKAZ expressed in animal cultured cells (culture medium and cell extracts); format: cell-based, Chinese hamster; conditions: coelenterazine; for Relative luminescence activity (%, Imax) pcDNA3- Cell extracts / Relative luminescence activity (%, Imax) pcDNA3- Culture medium: lacking secretory signal peptide; for Relative luminescence activity (%, Imax) pcDNA3- Cell extracts / Relative luminescence activity (%, Imax) pcDNA3-GLsp- Cell extracts: CHO-K1, cell extracts; for Relative luminescence activity (%, Imax) pcDNA3- Culture medium / Relative luminescence activity (%, Imax) pcDNA3-GLsp- Culture medium: CHO-K1, culture medium; for Relative luminescence activity (%, Imax) pcDNA3-GLsp- Cell extracts / Relative luminescence activity (%, Imax) pcDNA3-GLsp- Culture medium: with Gaussia luciferase secretory signal peptide
# Procedure: Chinese hamster ovary cell line CHO-K1 was cultured in Ha F-12 medium (manufactured by Wako Pure Chemical Industries, Ltd.) supplemented with 10% (v/v) fetal bovine serum (manufactured by Biowest Inc.) (hereinafter sometimes referred to as Ham's F-12 medium). The CHO-K1 cells were seeded in a 6-well plate in 1×10^5 cells/well/2 mL medium (n=2) and cultured in an incubator at 37° C. in 5% (v/v) CO2. After 24 hours, the purified recombinant plasmid was transfected to CHO-K1 cells using a FuGene HD transfection kit (manufactured by Promega Corp.) and the cells were provided for subsequent experiment. Specifically, 1 μg of the recombinant plasmid, 0.1 μg of the internal standard vector pGL4.13 [Luc2/sv40] and 3 μL of FuGene HD were added to 100 μL of the medium and allowed to stand at room temperature for 15 minutes. Subsequently, 100 μL, of the DNA-FuGene complex was added to the cells in the 6-well plate. After incubation for 44 hours, the culture medium was collected. On the other hand, the cells expressed the KAZ mutants were washed 3 times with 3 mL of 1×PBS, then suspended in 1 mL of 1×PBS and disrupted by sonication on ice. The resultant cell extracts of nanoKAZ deletion mutants was used as enzyme solutions.
# Culture media containing the secreted amino-terminal deleted nanoKAZ and cell extracts of amino-terminal deleted nanoKAZ as the enzyme solutions were prepared in the same manner as in EXAMPLE 10.
# After adding of 5 μL each of the culture media and cell extracts obtained in EXAMPLE 10 and EXAMPLE 12, respectively, to 100 μL of TE containing 1 μg of coelenterazine (manufactured by JNC Corp.), a luminescence reaction was started. The luminescence activity was measured for 60 seconds using a luminometer (manufactured by Atto Inc.: AB2200), and the maximum intensity of luminescence (Imax) was given as a percentage (%).
# [2] = Substrate specificities for amino-terminal deleted nanoKAZ; format: biochemical; conditions: for Relative luminescence activity (Imax) 6h-f-CTZ: substrate 6h-f-coelenterazine; for Relative luminescence activity (Imax) 6h-f-CTZ / Relative luminescence activity (Imax) bis-CTZ / Relative luminescence activity (Imax) f-CTZ / Relative luminescence activity (Imax) h-CTZ: relative to nanoKAZ with CTZ; for Relative luminescence activity (Imax) bis-CTZ: substrate bis-coelenterazine; for Relative luminescence activity (Imax) CTZ: substrate coelenterazine (CTZ), culture medium of CHO-K1, pcDNA3 vectors, nanoKAZ with CTZ = 1.00; for Relative luminescence activity (Imax) f-CTZ: substrate f-coelenterazine; for Relative luminescence activity (Imax) h-CTZ: substrate h-coelenterazine; for luminescence activity higher than that of coelenterazine: as luminescence substrate of the luciferase mutant, general description
# Procedure: The enzyme solutions of amino-terminal deleted nanoKAZ used for substrate specificity studies were prepared by the method described in EXAMPLE 12, using pcDNA3 vectors (pcDNA3-ΔN2T-nKAZ, pcDNA3-ΔN3L-nKAZ, pcDNA3-ΔN4E-nKAZ, pcDNA3-ΔN5D-nKAZ and pcDNA3-ΔN6F-nKAZ) for expression of the amino-terminal deletions, which were obtained by the method described in EXAMPLE 11. After transfection to CHO-K1 cells and then incubation for 48 hours, the culture medium were collected and stored in a frozen state. The coelenterazine analogues used for substrate specificity studies were synthesized by the methods described in publications, respectively. Specifically, coelenterazine (CTZ), h-coelenterazine (h-CTZ) and f-coelenterazine (f-CTZ), 6h-f-coelenterazine (6h-f-CTZ) were synthesized by the method described in Inouye et al (2013) Biochem. Biophys. Res. Commun. 437: 23-28, and bis-coelenterazine (bis-CTZ) was synthesized by the method described in Nakamura et al, (1997) Tetrahedron Lett. 38: 6405-6406.
# A luminescence reaction was started by the addition of 2 μL of the freeze-thawed culture medium on ice to 100 μL of TE containing 1 μg of coelenterazine or its analogue. The luminescence activities were measured for 10 seconds using a luminometer (manufactured by Atto Inc.: AB2200), and the maximum intensity of luminescence (Imax) of nanoKAZ was shown as a relative luminescence activity using coelenterazine as a substrate.
# [3] = tested on: pcDNA3-GLsp-nanoKAZ/CHO-K1 stable expressed cell line; assay: Secretory inhibition by brefeldin A, nanoKAZ with secretory signal peptide sequence; format: cell-based, Chinese hamster; conditions: brefeldin A 5 μg/mL, 0-6 hours, compared to absence of brefeldin A, FIG. 3
# Procedure: (§1) Using the stable expressed cell lines established in EXAMPLE 14 and EXAMPLE 15, the effect of brefeldin A that inhibits exocytosis through the trans-Golgi network by the vesicle-mediated transport was compared. Specifically, each stable expressed cell lines with 2×10^5 cells were seeded to a 6-well plate in 3 mL of Ham's F-12 medium containing 10% FBS, respectively; followed by incubation at 37° C. in a 5% CO2 incubator for 48 hours. After washing twice with 3 mL of Ham's F-12 medium containing 10% FBS, brefeldin A (manufactured by Wako Pure Chemical Industries, Ltd.) was added to the culture medium at a final concentration of 5 μg/mL. As a control experiment, cells were cultured in the absence of brefeldin A. The luminescence activity in the culture medium was determined at each incubation times at 0, 1, 3 and 6 hours, using coelenterazine as a substrate.
# [4] = tested on: pcDNA3-nanoKAZ/CHO-K1 stable expressed cell line; assay: Secretory inhibition by brefeldin A, nanoKAZ without secretory signal peptide sequence; format: cell-based, Chinese hamster; conditions: brefeldin A 5 μg/mL, 0-6 hours, FIG. 4
# Procedure: as §1
Molecule,"Relative luminescence activity (%, Imax) pCold-ZZ-P- [1] [%]","Relative luminescence activity (%, Imax) pCold- [1] [%]","Relative luminescence activity (%, Imax) pcDNA3- Cell extracts (CHO-K1 cells) [%]","Relative luminescence activity (%, Imax) pcDNA3- Culture medium (CHO-K1 cells) [%]","Relative luminescence activity (%, Imax) pcDNA3-GLsp- Cell extracts (CHO-K1 cells) [%]","Relative luminescence activity (%, Imax) pcDNA3-GLsp- Culture medium (CHO-K1 cells) [%]",Relative luminescence activity (Imax) 6h-f-CTZ [2],Relative luminescence activity (Imax) bis-CTZ [2],Relative luminescence activity (Imax) CTZ [2],Relative luminescence activity (Imax) f-CTZ [2],Relative luminescence activity (Imax) h-CTZ [2],"activity compared with nanoKAZ (in words) ([2]; substrates bis-CTZ, 6h-f-CTZ, h-CTZ and f-CTZ)",secretion of nanoKAZ into the culture medium in the presence of brefeldin A [3],secretion of nanoKAZ into the culture medium in the presence of brefeldin A [4],luminescence activity higher than that of coelenterazine [2]
C[C@H]1CCC/C=C/[C@@H]2C[C@H](O)C[C@H]2[C@H](O)/C=C/C(=O)O1 [brefeldin A],,,,,,,,,,,,,markedly inhibited,secreted,
"Oc1ccc(-c2cn3c(O)c(Cc4ccccc4)nc3c(Cc3ccccc3)n2)cc1 [h-CTZ, h-coelenterazine, reference compound]",,,,,,,,,,,,,,,10 times
"O=c1c(Cc2ccc(F)cc2)nc2c(Cc3ccccc3)[nH]c(-c3ccc(O)cc3)cn1-2 [f-CTZ, f-coelenterazine, reference compound]",,,,,,,,,,,,,,,10 times
bis-coelenterazine [reference compound],,,,,,,,,,,,,,,approximately 10 times
"O=c1c(Cc2ccc(F)cc2)nc2c(Cc3ccccc3)[nH]c(-c3ccccc3)cn1-2 [6h-f-coelenterazine, reference compound]",,,,,,,,,,,,,,,approximately 10 times
"nanoKAZ: mutated 19 kDa catalytic protein of Oplophorus luciferase with 16 mutations, amino acid sequence SEQ ID NO: 2 [reference compound]",100,100,29.4,100,4.8,100,7.00,6.93,1.00,12.65,11.76,,,,

# The next lines start with results.
"Relative luminescence activity (%, Imax) pCold-ZZ-P- [1] [%]","Relative luminescence activity (%, Imax) pCold- [1] [%]",Molecule,"Relative luminescence activity (%, Imax) pcDNA3- Cell extracts (CHO-K1 cells) [%]","Relative luminescence activity (%, Imax) pcDNA3- Culture medium (CHO-K1 cells) [%]","Relative luminescence activity (%, Imax) pcDNA3-GLsp- Cell extracts (CHO-K1 cells) [%]","Relative luminescence activity (%, Imax) pcDNA3-GLsp- Culture medium (CHO-K1 cells) [%]",Relative luminescence activity (Imax) 6h-f-CTZ [2],Relative luminescence activity (Imax) bis-CTZ [2],Relative luminescence activity (Imax) CTZ [2],Relative luminescence activity (Imax) f-CTZ [2],Relative luminescence activity (Imax) h-CTZ [2],"activity compared with nanoKAZ (in words) ([2]; substrates bis-CTZ, 6h-f-CTZ, h-CTZ and f-CTZ)",secretion of nanoKAZ into the culture medium in the presence of brefeldin A [3],secretion of nanoKAZ into the culture medium in the presence of brefeldin A [4],luminescence activity higher than that of coelenterazine [2]
73.6,87.0,ΔN5D-nKAZ: nanoKAZ with 4 amino-terminal amino acids deleted; SEQ ID NO: 10,1.5,0.1,1.7,56.2,0.01,0.01,0.01,0.02,0.01,,,,
93.4,,ΔN2T-nKAZ: nanoKAZ (SEQ ID NO: 2) with deletion of the phenylalanine residue at the first amino acid; SEQ ID NO: 4,23.3,93.4,3.4,97.0,8.02,8.99,1.03,15.04,13.38,higher activity than nanoKAZ,,,
74.0,,ΔN4E-nKAZ: nanoKAZ with 3 amino-terminal amino acids deleted; SEQ ID NO: 8,9.7,4.6,2.9,60.5,0.36,0.35,0.05,0.70,0.58,,,,
82.0,,ΔN3L-nKAZ: nanoKAZ with 2 amino-terminal amino acids deleted; SEQ ID NO: 6,16.2,50.6,4.4,87.7,5.25,5.39,0.50,9.88,9.39,,,,
